This is an account of results in patent US20260327264A1, “PEPTIDE INHIBITORS OF INTERLEUKIN-23 RECEPTOR” (Zealand Pharma A/S, priority 2023, published 2026).

pIC50: −log10 of the molar value. “Also recorded” adds a separate entry of the source. Read-outs that look alike come from different tables or passages of the source. *1 amine or outer side, *2 acyl side, *3 side chain or, on linkers, in order; H or OH if unused. Where a SMILES comes first, the peptide text is derived from it. Bridges are numbered along the chain shown (N, C = ends). [ ]: non-standard residue; d: D form. 2Nal = N[C@@H](Cc1ccc2ccccc2c1)C(=O)O; AEF = NCCOc1ccc(C[C@H](N)C(=O)O)cc1; X1 = O=C(Cc1ccc(CN[*:1])cc1)[*:2]; 3Pal = N[C@@H](Cc1cccnc1)C(=O)O; αMeL = CC(C)C[C@](C)(N)C(=O)O; Dab = NCC[C@H](N)C(=O)O

The target of series [1] is T1, human IL-23R (Homo sapiens, UniProt Q5VWK5).
T1 construct: Nanoluc luciferase (Nluc); secretion signal encoded by the plasmid (not specified); expressed in transfected cells; crude membranes used in the assay
T1 sequence (Q5VWK5 22-629): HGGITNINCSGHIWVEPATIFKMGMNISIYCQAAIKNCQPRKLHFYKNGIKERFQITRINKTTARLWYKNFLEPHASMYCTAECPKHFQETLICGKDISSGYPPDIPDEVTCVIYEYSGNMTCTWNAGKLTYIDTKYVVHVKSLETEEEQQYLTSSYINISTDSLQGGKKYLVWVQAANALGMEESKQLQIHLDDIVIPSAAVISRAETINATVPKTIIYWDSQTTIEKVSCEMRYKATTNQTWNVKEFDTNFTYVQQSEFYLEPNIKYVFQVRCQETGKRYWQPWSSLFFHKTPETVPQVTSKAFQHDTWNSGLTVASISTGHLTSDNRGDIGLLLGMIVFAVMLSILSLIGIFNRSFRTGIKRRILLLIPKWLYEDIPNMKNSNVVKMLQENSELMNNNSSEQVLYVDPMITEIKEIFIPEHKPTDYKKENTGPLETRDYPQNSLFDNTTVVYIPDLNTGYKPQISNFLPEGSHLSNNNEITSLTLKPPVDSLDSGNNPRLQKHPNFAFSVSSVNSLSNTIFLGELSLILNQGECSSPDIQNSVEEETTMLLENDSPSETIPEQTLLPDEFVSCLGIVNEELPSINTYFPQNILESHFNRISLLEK
Nature of the series: Binding assay: displacement of fluorophore (TAMRA)-labelled reference compound from human IL-23R (BRET, Nluc-IL23R fusion protein membranes). To be noted: for potency of the compound (in words): potency against IL-23R; for Emax: read-out: % displacement (hIL-23R binding). (In BRET a luciferase serves as donor, and the signal depends on an acceptor being close.)
Excerpt: The assay principle relies on Bioluminescence Resonance Energy Transfer (BRET) between a fluorophore-labelled reference compound binding to the IL-23R part of a fusion protein consisting of the IL-23R fused to a Nanoluc luciferase enzyme (Nanoluc). The Nanoluc is placed in the N-terminus in close proximity to the binding domain of the ligand. Upon close proximity between the fluorophore of the fluorophore-labelled compound and the Nanoluc of the fusion protein, bioluminescence energy generated from conversion of a Nanoluc substrate, is transferred to the fluorophore resulting in an increase in BRET. In presence of an unlabelled compound, the unlabelled compound displaces the fluorophore-labelled peptide from its binding site resulting in a decrease in BRET. The concentration for which half of the fluorophore-labelled peptide is displaced by the unlabelled compound depends on the affinity of the compound for the IL-23R, and is termed the IC50 concentration.
The plasmid also contained a gene to confer resistance for the antibiotic hygromycin. A cell line stably expressing the Nluc-IL23R fusion protein was generated by transfection of HEK293 cells with the expression plasmid and selected with hygromycin for 3 weeks in Growth medium consisting of DMEM w/Glutamax-I containing, 10% V/V FBS, 1% V/V P/S, 1 mM Sodium Pyruvate, and 1× NEAA, and 0.3 mg/mL hygromycin. The remaining cells were propagated and considered a stable expressing Nluc-IL23R fusion protein pool clone.
Cells expressing the Nluc-IL23R fusion protein were expanded in Growth medium and membranes prepared by homogenization of a cell pellet from 18 T175 flasks (4° C. in subsequent steps). The cell pellet was lysed Tris 10 mM, 7.5, 1 mM EDTA and protease inhibitors (Complete, Roche) and homogenized using a 15 mL glass-dounce by 50 strokes. The homogenate was spun at spin @1500 rpm for 10 min, the supernatant transferred to SV-34 tubes and spun at 40000 g for 20 min at 4° C. to pellet the crude membranes. The supernatant was then removed, the pellet resuspended in 5 mL buffer containing 50 mM HEPES pH 7.4, 5 mM EGTA, and 5 mM MgCl2, and homogenized. Aliquots of the resuspended and homogenized membranes containing the Nluc-IL23R fusion protein were stored at −80° C. until use.
The plate was sealed with light impermeable plate seals, and incubated on an orbital shaker 400 rpm for 2 hours at room temperature. To determine the BRET ratio, the plate seal was removed and 25 μL of the Nanoluc substrate (Promega N1572) diluted 1:500 was added to each well and incubated for 1-2 minutes on an orbital shaker at 400 rpm. […] The BRET ratio was calculated as the fluorescence from the TAMRA/nanoluc bioluminescence.
Compound potency (IC50) and maximal displacement (% displacement) were estimated by computer-aided curve fitting using a 4-parameter logistic (4PL) non-linear model. The IC50 and maximal for each compound was determined by computer-aided curve fitting using a 4-parameter logistic (4PL) non-linear model.

Series [2] concerns IL-23 mediated STAT3 signalling (DB cells). Briefly: Functional inhibition of IL-23 mediated STAT3 signalling (phospho-STAT3 Tyr705) in DB cells. Type of series: cell-based, human. To be noted: for hIL-23 (pSTAT3) antagonist % inhibition: Table 3-2, maximal inhibitory response, EC80 of hIL-23. The gist of the method: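 DB cells preincubated 15 min with inhibitor at 37° C, 5% CO2, then stimulated 90 min with hIL-23 at EC80. Lysate phospho-STAT3 measured by MSD electrochemiluminescence. Signal normalized to IL-23-alone and buffer wells; IC50 and maximal inhibition from concentration–response curves.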

Series [3] is described as follows: Peptide stability in simulated intestinal fluid (SIF). Type of series: in vitro ADME. To be noted: for remaining at 1 h, 10 µM / remaining at 4 h, 10 µM: pig. The method, then: (§1) SGF and SIF were prepared based on the United States Pharmacopeia specifications (Test Solutions, United States Pharmacopeia 35, NF 30, 2012). SGF was prepared by dissolving sodium chloride (0.2 g) in 50 mL of water. A volume of 0.7 mL of 10 M HCl was added to adjust the pH of the solution to 1.2 and the volume made up to 100 mL with water. 64 mg porcine pepsin (P7125, Sigma Aldrich) was gently dissolved into 20 mL preheated (37° C.) solution (3.2 g/L) immediately prior to the incubation. SIF was prepared by dissolving monobasic potassium phosphate (0.68 g) in 50 mL of water and adjusting the pH to 6.8 with 1 M NaOH. The volume was subsequently made up to 100 mL with water. 200 mg porcine pancreatin (P1625, Sigma Aldrich) was gently dissolved into 20 mL preheated (37° C.) solution (10 g/L) immediately prior to the incubation.
(§2) To initiate the incubations, 20 μL of peptide stock solution in 50% v/v isopropanol was deposited at the bottom of a well plate and 580 μL matrix solution was added to give a final substrate concentration of 10 μM. The incubation was performed at 37° C. with gentle shaking. 70 μL aliquots were removed at 0, 1 and 4 hours and quenched into 210 μL ice-cold precipitant solution (95% v/v acetonitrile with 0.1% v/v formic acid). After the last timepoint, the sampling plate was mixed for 10 min on a shaking table and centrifuged 10 min at 2200 g. 70 μL resulting supernatant was diluted with 150 μL water, mixed and centrifugated before analysis by liquid chromatography high resolution mass spectrometry. The zero sample was reinjected after the 4-hour sample to confirm that no drift in instrument sensitivity had occurred during the run. Percent remaining at each timepoint was calculated relative to timepoint zero based on absolute peak areas.
Compounds with a SIF stability (after 4 h) above 70% are considered highly SIF stable. Compounds with a SIF stability (after 4 h) between 30-70% (including 30% and 70%) are considered moderately SIF stable. Compounds with a SIF stability (after 4 h) below 30% are considered SIF unstable. SIF stability values above 100% are due to assay uncertainty and indicate the compound has not degraded.

The nature of series [4]: Peptide stability in simulated gastric fluid (SGF). Type of series: in vitro ADME. To be noted: pig, pH 1.2, pepsin, 37° C. The method, then:
as §1, §2
Compounds with a SGF stability (after 4 h) above 70% are considered highly SGF stable. Compounds with a SGF stability (after 4 h) between 30-70% (including 30% and 70%) are considered moderately SGF stable. Compounds with a SGF stability (after 4 h) below 30% are considered SGF unstable. SGF stability values above 100% are due to assay uncertainty and indicate the compound has not degraded.

Setting [5] is: EC80 of hIL-23, read-out: IC50 (pSTAT3).
Where [6] appears, read: Table 3-2, EC80 of hIL-23, read-out: hIL-23 (pSTAT3) antagonist IC50.
Setting [7] is: simulated intestinal fluid, SIF, pH 6.8, pancreatin, 37° C.
[8] abbreviates: simulated intestinal fluid, SIF, pH 6.8, pancreatin, 37° C., read-out: SIF (% remaining 4 h).

One may read the pIC50 as −log10 of the IC50, conventionally taken in molar units. `CC(C)C[C@]1(C)NC(=O)[C@H](Cc2ccc3ccccc3c2)NC(=O)[C@H](Cc2ccc(OCCN)cc2)NC(=O)[C@@H]2CCNC(=O)CC[C@H](NC(=O)[C@H](CO)NC(=O)Cc3ccc(cc3)CNC(=O)CC[C@@H](C(=O)N[C@@H](CCN)C(=O)NCCc3cccnc3)NC1=O)C(=O)N[C@@H](Cc1c[nH]c3ccccc13)C(=O)N[C@@H](CCC(N)=O)C(=O)N2` [Compound 7, [4-Aminomethyl-phenylacetyl](1c)*SE(2c)WQ[Dab](2c)[Y(2-aminoethoxy)][2-Nal][2-Me-Leu]E(1c)[Dab]-[NH-(2-(pyridin-3-yl)ethyl)]]: the “potency of the compound (in words)” value in series [1] was “more potent than Compound 6; also recorded: particularly potent”. Moreover, the pIC50 in series [2] (setting [5]) and in series [2] (setting [6]) was 9.89 throughout. Besides, in series [2], the “hIL-23 (pSTAT3) antagonist % inhibition” value is on record as 98%. Moreover, the fraction remaining at 1 h, 10 µM in series [3] (setting [7]) is 103%. The share remaining at 4 h, 10 µM in series [3] (37 °C, simulated intestinal fluid pH 6.8 with porcine pancreatin, read-out: SIF (% after 4 h), intact peptide remaining) is 130%. Moreover, the “SIF stability (in words)” value in series [3] (simulated intestinal fluid) was “SIF stable”.

Turning to `CNC(=O)[C@H](Cc1cccnc1)NC(=O)[C@H](CCC(N)=O)NC(=O)[C@@H]1CCC(=O)NCc2ccc(cc2)CC(=O)N[C@@H](CO)C(=O)N[C@H]2CCC(=O)NCC[C@H](NC(=O)[C@H](CCC(N)=O)NC(=O)[C@H](Cc3c[nH]c4ccccc34)NC2=O)C(=O)N[C@@H](Cc2ccc(OCCN)cc2)C(=O)N[C@@H](Cc2ccc3ccccc3c2)C(=O)N[C@@](C)(CC(C)C)C(=O)N1` [Compound 33, [4-Aminomethyl-phenylacetyl](1c)*SE(2c)WQ[Dab](2c)[Y(2-aminoethoxy)][2-Nal][2-Me-Leu]E(1c)Q[3-(3-Pyridyl)-Ala]-[NHMe]] ([X1]SEWQ[Dab][AEF][2Nal][αMeL]EQ[3Pal]-NHMe; lactam 3-6, N-10), the amount remaining at 1 h, 10 µM was 92% in series [3] (setting [7]) and 98% in series [4].

In the case of `CC(C)C[C@]1(C)NC(=O)[C@H](Cc2ccc3ccccc3c2)NC(=O)[C@H](Cc2ccc(OCCN)cc2)NC(=O)[C@@H]2CCNC(=O)CC[C@H](NC(=O)[C@H](CO)NC(=O)Cc3ccc(cc3)CNC(=O)CC[C@@H](C(=O)N[C@@H](CCN)C(=O)N[C@@H](Cc3cccnc3)C(N)=O)NC1=O)C(=O)N[C@@H](Cc1c[nH]c3ccccc13)C(=O)N[C@@H](CCC(N)=O)C(=O)N2` [Ref 122, [4-Aminomethyl-phenylacetyl](1c)*SE(2c)WQ[Dab](2c)[Y(2-aminoethoxy)][2-Nal][2-Me-Leu]E(1c)[Dab][3-(3-Pyridyl)-Ala]-[NH2], reference compound], in series [1], the “potency of the compound (in words)” value is recorded as “potent” and the Emax came out at 97%. Moreover, in series [2], the “hIL-23 (pSTAT3) antagonist % inhibition” value turned out to be 99%. Further, in series [3] (simulated intestinal fluid), the “SIF stability (in words)” value is reported as “not stable” and the “major metabolite formed after incubation in the SIF assay” value is “the peptide without the C-terminal 3Pal (3-(3-Pyridyl)-Ala) amino acid”.

Turning to `CNC(=O)[C@H](Cc1cccnc1)NC(=O)[C@H](CCN)NC(=O)[C@@H]1CCC(=O)NCc2ccc(cc2)CC(=O)N[C@@H](C)C(=O)N[C@H]2CCC(=O)NCC[C@H](NC(=O)[C@H](CCC(N)=O)NC(=O)[C@H](Cc3c[nH]c4ccccc34)NC2=O)C(=O)N[C@@H](Cc2cnc3ccccc3c2)C(=O)N[C@@H](Cc2ccc3ccccc3c2)C(=O)NC(C)(C)C(=O)N1` [Compound 52, [4-aminomethyl-phenylacetyl](1c)*AE(2c)WQ[Dab](2c)[3-quinolinylalanine][2Nal][Aib]E(1c)[Dab][3-(3-Pyridyl)-alanyl]-[NHMe]], in series [1], the negative logarithm of the IC50 (pIC50) is 10.09 and the Emax is 102%. Moreover, the pIC50 in series [2] (setting [6]) was 9.22. For the same compound, in series [2], the “hIL-23 (pSTAT3) antagonist % inhibition” value came to 99%. Besides, the fraction remaining at 1 h, 10 µM in series [3] (setting [7]) was 92%. In addition, in series [3] (setting [8]), the share remaining at 4 h, 10 µM was 95%.

As to `CC(C)C[C@]1(C)NC(=O)[C@H](Cc2ccc3ccccc3c2)NC(=O)[C@H](Cc2ccc(OCCN)cc2)NC(=O)[C@@H]2CCNC(=O)CC[C@H](NC(=O)[C@H](CO)NC(=O)Cc3ccc(cc3)CNC(=O)CC[C@@H](C(=O)N[C@@H](CCN)C(=O)N[C@H](Cc3cccnc3)C(N)=O)NC1=O)C(=O)N[C@@H](Cc1c[nH]c3ccccc13)C(=O)N[C@@H](CCC(N)=O)C(=O)N2` [Compound 5, [4-Aminomethyl-phenylacetyl](1c)*SE(2c)WQ[Dab](2c)[Y(2-aminoethoxy)][2-Nal][2-Me-Leu]E(1c)[Dab][{d}3-(3-Pyridyl)-Ala]-[NH2]], the pIC50 in series [2] (setting [5]) and in series [2] (setting [6]) was 8.68 in each case. In addition, the “hIL-23 (pSTAT3) antagonist % inhibition” value in series [2] was determined as 95%. For the same compound, the amount remaining at 1 h, 10 µM in series [3] (setting [7]) is 91%. Besides, in series [4], the amount remaining at 4 h, 10 µM was 105%.

Turning to `CC(C)C[C@@H]1NC(=O)[C@H](Cc2c[nH]c3ccccc23)NC(=O)[C@H](Cc2c[nH]c3ccccc23)NC(=O)[C@@H]2CSCC(=O)CSC[C@H](NC(=O)[C@H](CO)NC(=O)[C@@H](NC(=O)[C@@H](N)CC(=O)O)CSCC(=O)CSC[C@@H](C(=O)N[C@@H](CCCNC(=N)N)C(N)=O)NC1=O)C(=O)N[C@@H](Cc1c[nH]c3ccccc13)C(=O)N[C@@H](CCC(N)=O)C(=O)N2` (single isomer, unassigned) [I3 (isomer 3), H-DC(1a)SC(2a)WQC(2a)WWLC(1a)R-[NH2], reference compound], the amount remaining at 1 h, 10 µM in series [3] (setting [7]) is 0%; in series [4], 5%. In addition, the fraction remaining at 4 h, 10 µM in series [3] (setting [8]) and in series [4] was 0% throughout.

Consider `CNC(=O)[C@H](Cc1cccnc1)NC(=O)[C@H](CCN)NC(=O)[C@@H]1CCC(=O)NCc2ccc(cc2)CC(=O)N[C@@H](C)C(=O)N[C@H]2CCC(=O)NCC[C@H](NC(=O)[C@H](CCC(N)=O)NC(=O)[C@H](Cc3c[nH]c4ccccc34)NC2=O)C(=O)N[C@@H](Cc2ccc(OCCN)cc2)C(=O)N[C@@H](Cc2cnc3ccccc3c2)C(=O)NC(C)(C)C(=O)N1` [Compound 49, 4-aminomethyl-phenylacetyl](1c)*AE(2c)WQ[Dab](2c)[Y(2-aminoethoxy)][3-quinolinylalanine][Aib]E(1c)[Dab][3-(3-Pyridyl)-alanyl]-[NHMe]], for which, in series [1], the pIC50 is 10.64 and the Emax was found to be 89%. The pIC50 in series [2] (setting [6]) was 10.03. Also, the “hIL-23 (pSTAT3) antagonist % inhibition” value in series [2] is on record as 100%. Besides, in series [3] (setting [7]), the fraction remaining at 1 h, 10 µM was 93%. Moreover, the amount remaining at 4 h, 10 µM in series [3] (setting [8]) was 89%.
